Measured values reported in US6716851B2, “Substituted 2-aryl-4-arylaminopyrimidines and analogs as activators or caspases and inducers of apoptosis and the use thereof” (Cytovia, Inc., priority 2000, dated 2004).
Where a name gives a salt, the structure may show the parent alone. Each block holds one molecule with its values, some of them ahead of it.

Assays:
[1] = test system: T-47D cells; experiment: Caspase cascade activation (N-(Ac-DEVD)-N'-ethoxycarbonyl-R110 fluorogenic substrate) in T-47D cells; format: cell-based, Human; details: 48 h incubation; for EC50: Homo sapiens, T47D, caspase activation potency, read-out: T47 EC50; for T47 Ratio 48 hr: caspase activity: ratio of net RFU of test compound to control
Protocol: (§1) Human breast cancer cell lines T-47D and ZR-75-1 were grown according to media component mixtures designated by American Type Culture Collection +10% FCS (Invitrogen Corporation, Life Technologies division), in a 5% CO2-95% humidity incubator at 37° C. T-47D and ZR-75-1 cells were maintained at a cell density between 50 and 80% confluency at a cell density of 0.1 to 0.6×10^6 cells/ml. Cells were harvested at 600× g and resuspended at 0.65×10^6 cells/ml into appropriate media +10% FCS. An aliquot of […] of cells was added to a well of a […] microtiter plate containing 2.5 μl of a 10% DMSO in RPMI-1640 media solution containing 0.16 to 100 μM of 4-(3-methoxyanilino)-2-(2-pyridinyl)-6-(trifluoromethyl)pyrimidine or other test compound (0.016 to 10 μM final). An aliquot of 22.5 μl of cells was added to a well of a 384-well microtiter plate containing 2.5 μl of a 10% DMSO in RPMI-1640 media solution without test compound as the control sample. The samples were mixed by agitation and then incubated at 37° C. for 48 h in a 5% CO2-95% humidity incubator. After incubation, the samples were removed from the incubator and 25 μl of a solution containing 14 μM of N-(Ac-DEVD)-N′-ethoxycarbonyl-R110 fluorogenic substrate (Cytovia, Inc.; WO99/18856), 20% sucrose (Sigma), 20 mM DTT (Sigma), 200 mM NaCl (Sigma), 40 mM Na PIPES buffer pH 7.2 (Sigma), and 500 μg/ml lysolecithin (Calbiochem) was added. The samples were mixed by agitation and incubated at room temperature. Using a fluorescent plate reader (Model SpectraMax Gemini, Molecular Devices), an initial reading (T=0) was made approximately 1-2 min after addition of the substrate solution, employing excitation at 485 nm and emission at 530 nm, to determine the background fluorescence of the control sample. After the 3 h incubation, the samples were read for fluorescence as above (T=3 h).
(§2) The Relative Fluorescence Unit values (RFU) were used to calculate the sample readings as follows:
(§3) RFU(T=3h)−Control RFU(T=0)=Net RFU(T=3h)
(§4) The activity of caspase cascade activation was determined by the ratio of the net RFU value for 4-(3-methoxyanilino)-2-(2-pyridinyl)-6-(trifluoromethyl)pyrimidine or other test compound to that of control samples. The EC50 (nM) was determined by a sigmoidal dose-response calculation (Prism 2.0, GraphPad Software Inc.).

[2] = test system: ZR-75-1 cells; experiment: Caspase cascade activation (N-(Ac-DEVD)-N'-ethoxycarbonyl-R110 fluorogenic substrate) in ZR-75-1 cells; format: cell-based, Human; details: ZR-75-1, 48 h incubation; for EC50: Homo sapiens, caspase activation potency; for ZR Ratio 48 hr: caspase activity: ratio of net RFU of test compound to control
Protocol: as §1, §2, §3, §4

Compound: Cc1cc(Nc2c(C)cccc2C)nc(-c2ccccn2)n1 [Example 108, 4-(2,6-Dimethylanilino)-6-methyl-2-(2-pyridinyl)pyrimidine]
- EC50 [1]: > 5000 nM
- T47 Ratio 48 hr [1]: 0.9
- EC50 [2]: 4370 nM
- ZR Ratio 48 hr [2]: 2.4

Compound: COc1cccc(Nc2cc(-c3ccccn3)nc(-c3ccccn3)n2)c1 [Example 109, 4-(3-Methoxyanilino)-2,6-di(2-pyridinyl)pyrimidine]
- EC50 [1]: 1500 nM
- T47 Ratio 48 hr [1]: 3.9
- EC50 [2]: 2590 nM
- ZR Ratio 48 hr [2]: 3.6

Compound: COc1ccc(OC)c(Nc2cc(-c3ccccn3)nc(-c3ccccn3)n2)c1 [Example 110, 4-(2,5-Dimethoxyanilino)-2,6-di(2-pyridinyl)pyrimidine]
- EC50 [1]: 576 nM
- T47 Ratio 48 hr [1]: 8.9
- EC50 [2]: 648 nM
- ZR Ratio 48 hr [2]: 11.6

Compound: COc1ccc(C)c(Nc2cc(-c3ccccn3)nc(-c3ccccn3)n2)c1 [Example 111, 4-(5-Methoxy-2-methylanilino)-2,6-di(2-pyridinyl)pyrimidine]
- EC50 [1]: 1420 nM
- T47 Ratio 48 hr [1]: 4.0
- EC50 [2]: 2570 nM
- ZR Ratio 48 hr [2]: 3.9

Compound: COc1ccc(C)cc1Nc1cc(-c2ccccn2)nc(-c2ccccn2)n1.Cl [Example 112, 4-(2-Methoxy-5-methylanilino)-2,6-di(2-pyridinyl)pyrimidine]
- EC50 [1]: 1860 nM
- T47 Ratio 48 hr [1]: 3.3
- EC50 [2]: 2370 nM
- ZR Ratio 48 hr [2]: 2.9

Compound: COc1ccc(Cl)c(Nc2cc(-c3ccccn3)nc(-c3ccccn3)n2)c1.Cl [Example 113, 4-(2-Chloro-5-methoxyanilino)-2,6-di(2-pyridinyl)pyrimidine]
- EC50 [1]: 1430 nM
- T47 Ratio 48 hr [1]: 4.4
- EC50 [2]: 2730 nM
- ZR Ratio 48 hr [2]: 4.1

Compound: Cc1ccc(C)c(Nc2cc(-c3ccccn3)nc(-c3ccccn3)n2)c1 [Example 114, 4-(2,5-Dimethylanilino)-2,6-di(2-pyridinyl)pyrimidine]
- EC50 [1]: 2540 nM
- T47 Ratio 48 hr [1]: 3.6
- EC50 [2]: 2800 nM
- ZR Ratio 48 hr [2]: 3.7

Compound: Cc1ccc(C)c(Nc2cc(C(F)(F)F)nc(-c3ccncc3)n2)c1 [Example 115, 4-(2,5-Dimethylanilino)-2-(4-pyridinyl)-6-(trifluoromethyl)pyrimidine hydrochloride]
- EC50 [1]: 112 nM
- T47 Ratio 48 hr [1]: 14.2
- EC50 [2]: 59 nM
- ZR Ratio 48 hr [2]: 11.6

Compound: COc1ccc(C)cc1Nc1cc(C(F)(F)F)nc(-c2ccncc2)n1 [Example 116, 4-(2-Methoxy-5-methylanilino)-2-(4-pyridinyl)-6-(trifluoromethyl)pyrimidine]
- EC50 [1]: 71 nM
- T47 Ratio 48 hr [1]: 13.7
- EC50 [2]: 73 nM
- ZR Ratio 48 hr [2]: 8.8

Compound: Cc1ccc(O)cc1Nc1cc(C(F)(F)F)nc(-c2cccnc2)n1 [Example 117, 4-(5-Hydroxy-2-methylanilino)-2-(3-pyridinyl)-6-(trifluoromethyl)pyrimidine]
- EC50 [1]: 138 nM
- T47 Ratio 48 hr [1]: 11.3
- EC50 [2]: 276 nM
- ZR Ratio 48 hr [2]: 6.3

Compound: Cc1ccc(O)cc1Nc1cc(C(F)(F)F)nc(-c2ccncc2)n1 [Example 118, 4-(5-Hydroxy-2-methylanilino)-2-(4-pyridinyl)-6-(trifluoromethyl)pyrimidine]
- EC50 [1]: 34 nM
- T47 Ratio 48 hr [1]: 8.8
- EC50 [2]: 31 nM
- ZR Ratio 48 hr [2]: 9.9

Compound: Cc1ccc(C#N)c(Nc2cc(C(F)(F)F)nc(-c3cccnc3)n2)c1 [Example 120, 4-(2-Cyano-5-methylanilino)-2-(3-pyridinyl)-6-(trifluoromethyl)pyrimidine]
- EC50 [1]: 2690 nM
- T47 Ratio 48 hr [1]: 8.2
- EC50 [2]: 2400 nM
- ZR Ratio 48 hr [2]: 4.5

Compound: Cc1cc(C)cc(Nc2cc(C(F)(F)F)nc(-c3cccnc3)n2)c1 [Example 121, 4-(3,5-Dimethylanilino)-2-(3-pyridinyl)-6-(trifluoromethyl)pyrimidine]
- EC50 [1]: 480 nM
- T47 Ratio 48 hr [1]: 11.2
- EC50 [2]: 380 nM
- ZR Ratio 48 hr [2]: 9.9

Compound: COc1cc(Nc2cc(C(F)(F)F)nc(-c3cccnc3)n2)cc(OC)c1.Cl [Example 122, 4-(3,5-Dimethoxyanilino)-2-(3-pyridinyl)-6-(trifluoromethyl)pyrimidine hydrochloride]
- EC50 [1]: 44 nM
- T47 Ratio 48 hr [1]: 11.1
- EC50 [2]: 192 nM
- ZR Ratio 48 hr [2]: 10.1

Compound: Cc1ccc(Cl)c(Nc2cc(C(F)(F)F)nc(-c3cccnc3)n2)c1 [Example 123, 4-(2-Chloro-5-methylanilino)-2-(3-pyridinyl)-6-(trifluoromethyl)pyrimidine]
- EC50 [1]: 763 nM
- T47 Ratio 48 hr [1]: 21.2
- EC50 [2]: 725 nM
- ZR Ratio 48 hr [2]: 15.8

Compound: COc1cc(Nc2cc(C(F)(F)F)nc(-c3cccnc3)n2)cc(C(F)(F)F)c1 [Example 124, 4-(3-Methoxy-5-trifluoromethylanilino)-2-(3-pyridinyl)-6-(trifluoromethyl)pyrimidine]
- EC50 [1]: 720 nM
- T47 Ratio 48 hr [1]: 19.9
- EC50 [2]: 688 nM
- ZR Ratio 48 hr [2]: 16.3

Compound: COc1ccc(Cl)c(Nc2cc(C(F)(F)F)nc(-c3ccc(C(F)(F)F)nc3)n2)c1 [Example 125, 4-(2-Chloro-5-methoxyanilino)-2-[6-(trifluoromethyl)-3-pyridinyl]-6-(trifluoromethyl)pyrimidine]
- EC50 [1]: 3470 nM
- T47 Ratio 48 hr [1]: 4.4
- EC50 [2]: 2240 nM
- ZR Ratio 48 hr [2]: 8.1

Now from value to molecule, other results behind:

- EC50 [1]: 222 nM
- EC50 [2]: 353 nM
Compound: COc1ccc(Br)cc1Nc1cc(C(F)(F)F)nc(-c2cccnc2)n1 [Example 126, 4-(5-Bromo-2-methoxyanilino)-2-(3-pyridinyl)-6-(trifluoromethyl)pyrimidine]
- T47 Ratio 48 hr [1]: 12.0
- ZR Ratio 48 hr [2]: 5.9

- EC50 [1]: 279 nM
- EC50 [2]: 550 nM
Compound: COc1ccc(Br)c(Nc2cc(C(F)(F)F)nc(-c3cccnc3)n2)c1 [Example 127, 4-(2-Bromo-5-methoxyanilino)-2-(3-pyridinyl)-6-(trifluoromethyl)pyrimidine]
- T47 Ratio 48 hr [1]: 10.3
- ZR Ratio 48 hr [2]: 5.3

- EC50 [1]: > 5000 nM
- EC50 [2]: > 5000 nM
Compound: Cc1cc(Nc2cc(C(F)(F)F)nc(-c3cccnc3)n2)cc(C(F)(F)F)c1 [Example 128, 4-[3-Methyl-5-(trifluoromethyl)anilino]-2-(3-pyridinyl)-6-(trifluoromethyl)pyrimidine]
- T47 Ratio 48 hr [1]: 1.4
- ZR Ratio 48 hr [2]: 1.5

- EC50 [1]: 295 nM
- EC50 [2]: 167 nM
Compound: COc1cc(Nc2cc(C(F)(F)F)nc(-c3cccnc3)n2)c(OC)cc1Cl [Example 130, 4-(4-Chloro-2,5-dimethoxyanilino)-2-(3-pyridinyl)-6-(trifluoromethyl)pyrimidine hydrochloride]
- T47 Ratio 48 hr [1]: 11.3
- ZR Ratio 48 hr [2]: 9.7

- EC50 [1]: > 5000 nM
- EC50 [2]: > 5000 nM
Compound: COc1ccc(Cl)c(Nc2cc(C)nc(N3CCOCC3)n2)c1 [Example 131, 4-(6-Chloro-3-methoxyanilino)-2-morpholino-6-(methyl)pyrimidine]
- T47 Ratio 48 hr [1]: 1.2
- ZR Ratio 48 hr [2]: 1.2

- EC50 [1]: 807 nM
- EC50 [2]: > 5000 nM
Compound: COc1cc(Nc2cc(C(F)(F)F)nc(-c3cccnc3)n2)c(C(C)=O)cc1OC [Example 134, 4-(2-Acetyl-4,5-dimethoxyanilino)-2-(3-pyridinyl)-6-(trifluoromethyl)pyrimidine]
- T47 Ratio 48 hr [1]: 16.5
- ZR Ratio 48 hr [2]: 1.5

- EC50 [1]: 335 nM
- EC50 [2]: 204 nM
Compound: Cc1cc(Nc2cc(C(F)(F)F)nc(-c3ccccn3)n2)c(C)cc1O.Cl [Example 147, 4-(2,5-Dimethyl-4-hydroxyanilino)-2-(2-pyridinyl)-6-(trifluoromethyl)pyrimidine hydrochloride]
- T47 Ratio 48 hr [1]: 13.3
- ZR Ratio 48 hr [2]: 8.4

- EC50 [1]: 412 nM
- EC50 [2]: 243 nM
Compound: Cc1cc(Nc2cc(C(F)(F)F)nc(-c3cnccn3)n2)c(C)cc1O.Cl [Example 148, 4-(2,5-Dimethyl-4-hydroxyanilino)-(2-pyrazinyl)-6-(trifluoromethyl)pyrimidine hydrochloride]
- T47 Ratio 48 hr [1]: 13.8
- ZR Ratio 48 hr [2]: 8.4

- EC50 [1]: 75 nM
- EC50 [2]: 46 nM
Compound: Cc1cc(Nc2cc(C(F)(F)F)nc(-c3ccncc3)n2)c(C)cc1O [Example 149, 4-(2,5-Dimethyl-4-hydroxyanilino)-2-(4-pyridinyl)-6-(trifluoromethyl)pyrimidine]
- T47 Ratio 48 hr [1]: 16.0
- ZR Ratio 48 hr [2]: 10.0
